Earlier results on 2 molecules are cited in US7851464B2, “Spirolactam aryl CGRP receptor antagonists” (Merck Sharp & Dohme Corp., priority 2005, dated 2010).

Ends that are not written are not given here.

One data set concerns marmoset. The settings on record: Doods et al. 2000.
The subject of another data set is rat. The settings on record: Escott et al. 1995.
In another data set the test system is rats. As to conditions: prior administration, Williamson et al. 1997.

On to `NCCCC[C@H](NC(=O)[C@@H](Cc1cc(Br)c(O)c(Br)c1)NC(=O)N1CCC(N2Cc3ccccc3NC2=O)CC1)C(=O)N1CCN(c2ccncc2)CC1` [BIBN4096BS], for which the “effect on increase of facial blood flow” value in the data set on marmoset is given as “blocked”.
Turning to “CGRP(8-37): a peptide CGRP antagonist; fragment of CGRP that lacks seven N-terminal amino acid residues (VTHRLAGLLSRSGGVVKNNFVPTNVGSKAF; ends and bridges not checked; UniProt P06881 90-119, looked up, fragment)”, the “effect on increase of facial blood flow” value in the data set on rat is recorded as “inhibited”. The “effect on increase of middle meningeal artery diameter” value with rats is on record as “blocked”.
